Laboratory results as given in ChEMBL document CHEMBL5729557, “5-membered heteroaryl carboxamide compounds for treatment of HBV” (2023).

Test: Assay Measuring Activity of Test Compounds on Viral Production from HepAD38 Cells: HepAD38 cells grown in a T-150 flask (Corning, cat #: 430825) with Growth Medium (DMEM/F12 (1:1) (Hyclone, cat #: SH30023.02), 1× Pen/Strep (Invitrogen, cat #: 15140-122), 10% FBS (Tissue Culture Biologics, cat #: 101), 250 μg/mL G418 (Alfa Aesar, cat #: J62671), 1 μg/mL Tetracycline (Teknova, cat #: T3320)) were detached with 0.25% trypsin-EDTA to (Invitrogen, cat #: 25200-056). Tetracycline-free treatment medium (15 mL DMEM/F12 (1:1) 1× Pen/step, with 2% FBS, Tet-system approved (Clontech, cat #: 631106) were then added to mix, transferred into a 50 ml conical tube (Falcon, cat #: 21008-918,) and spun at 1300 rpm for 5 min. Pelleted cells were then re-suspended/washed with 50 mL of 1×DPBS (Invitrogen, cat #: 14190-136) 2 times and 50 mL treatment medium twice. HepAD38 cells were then re-suspended with 10 mL of treatment medium, syringed and counted. Wells of 96-well clear bottom TC plate (Corning, cat #: 3904,) were seeded at 50,000 cells/well in 180 μL of treatment medium, and 20 μL of either 10% DMSO (Sigma, cat #: D4540) as controls or a 10× solution of test compounds in 10% DMSO in treatment media was added for a final compound concentration starting at 10 μM, and plates were incubated in 5% CO2 incubator at 37° C. for 5 days.Subsequently viral load production was assayed by quantitative PCR (qPCR) of the HBV core sequence. PCR reaction mixture containing forward primers HBV-f 5′-CTGTGCCTTGGGTGGCTTT-3′ (IDT DNA), Reverse primers HBV-r 5′-[…]-3′ (IDT DNA), Fluorescent TaqMan™ Probes HBV-probe 5′-FAM/AGCTCCAAA/ZEN/[…]/3IABkFQ-3′ (IDT DNA), 10 μL/well of PerfeCTa® qPCR ToughMix® (Quanta Biosciences, Cat #: 95114-05K), and 6 μL/well of DEPC water (Alfa Aesar, cat #: J62087) was prepared. […] of supernatant was added to 16 μL of the reaction mixture in a qPCR plate (Applied Biosytems, Cat #: 4309849), sealed with a film (Applied Biosystems, Cat #: 4311971), centrifuged for a few seconds, and subsequently run on an Applied Biosystems VIIA7. The PCR mixture was incubated at 45° C. for 5 min, then 95° C. for 10 min, followed by 40 cycles of 10 seconds at 95° C. and 20 seconds at 60° C. Viral load was quantified against known HBV DNA standards by using ViiA™ 7 Software. Viral load in the supernatant from wells with treated cells were compared against viral load in supernatant from DMSO control wells (>3 per plate). Cell viability assay was performed with CellTiter-Glo Luminescent Cell Viability Assay (Promega, cat #: G7573) with modification. Mixed appropriate amount of CellTiter-Glo (CTG) 1×DPBS in a 1:1 ratio, added 100 uL of the mixture to each well followed completely removal of all supernatant in each well without touching cell surface. Incubated the plate at room temperature for 10 min on an orbital shaker, and then read the plate with a plate reader (TECAN M1000 or Envision).
Conditions: HePAD38
In the case of `Cn1nc(C2CC3CC(O)(C4CC4)CC3C2)c(C(=O)Nc2ccc(F)c(Cl)c2)c1N` (centres undefined), the EC50 is reported as under 100 nM. In the case of `Cn1nc([C@H]2CC3CC(=NO)C[C@@H]3C2)c(C(=O)Nc2ccc(F)c(Cl)c2)c1N` (some centres undefined), the EC50 is reported as under 100 nM. `Cn1nc([C@@H]2CC[C@H](c3ccccc3)C2)c(C(=O)Nc2ccc(F)c(Cl)c2)c1N` showed an EC50 of under 100 nM. For `COCCOc1ccc(C2CCC(c3nn(C)c(N)c3C(=O)Nc3ccc(F)c(Cl)c3)C2)cc1` (centres undefined), the EC50 was under 100 nM. `CCOC(=O)CC1CC2CC(c3nn(C)c(N)c3C(=O)Nc3ccc(F)c(Cl)c3)CC2C1` (centres undefined) showed an EC50 of under 100 nM. For `Cn1nc(C2CCC(c3ccc(F)cc3)C2)c(C(=O)Nc2ccc(F)c(Cl)c2)c1N` (centres undefined), the EC50 was under 100 nM. For `CC(=O)Nc1ccc(C2CCC(c3nn(C)c(N)c3C(=O)Nc3ccc(F)c(Cl)c3)C2)cc1` (centres undefined), the EC50 was under 100 nM. Work on `CN(C)C(=O)CC1(O)CC2CC(c3nn(C)c(N)c3C(=O)Nc3ccc(F)c(Cl)c3)CC2C1` (centres undefined) yielded an EC50 of under 100 nM. In the case of `Cn1nc([C@H]2CC[C@H](c3ccccc3)C2)c(C(=O)Nc2ccc(F)c(Cl)c2)c1N`, the EC50 is reported as “in the range around 5250 nM”. `Cn1nc(C2CC3CC(C(N)=O)CC3C2)c(C(=O)Nc2ccc(F)c(Cl)c2)c1N` (centres undefined) gave an EC50 of under 100 nM. Compound `COC1CC2CC(c3nn(C)c(N)c3C(=O)Nc3ccc(F)c(Cl)c3)CC2C1` (centres undefined) has an EC50 of under 100 nM. `Cn1nc(C2CC3CC(C)(O)CC3C2)c(C(=O)Nc2ccc(F)c(Cl)c2)c1N` (centres undefined) showed an EC50 of under 100 nM. For `Cn1nc(C2CC3CC(n4cccn4)CC3C2)c(C(=O)Nc2ccc(F)c(Cl)c2)c1N` (centres undefined), the EC50 was under 100 nM. For `Cn1nc(C2CC3CC(O)(CSCCN4CCOCC4)CC3C2)c(C(=O)Nc2ccc(F)c(Cl)c2)c1N` (centres undefined), the EC50 was under 100 nM. With `COc1cccc([C@H]2CC[C@H](c3nn(C)c(N)c3C(=O)Nc3ccc(F)c(Cl)c3)C2)c1` the EC50 was under 100 nM. In the case of `Cn1nc(C2CCC(c3ccccc3)C2)c(C(=O)Nc2cc(F)c(F)c(Br)c2)c1N` (centres undefined), the EC50 is reported as “in the range around 300 nM”. For `Cn1nc(C2CC3CC(O)(CSCCO)CC3C2)c(C(=O)Nc2ccc(F)c(Cl)c2)c1N` (centres undefined), the EC50 was under 100 nM. In the case of `Cn1nc(C2CC3CC(C(=O)O)CC3C2)c(C(=O)Nc2ccc(F)c(Cl)c2)c1N` (centres undefined), the EC50 is reported as under 100 nM. For `Cn1nc(C2CC3CC4(CC3C2)OCCO4)c(C(=O)Nc2ccc(F)c(Cl)c2)c1N` (centres undefined), the EC50 was under 100 nM. For `CCS(=O)(=O)C1CC2CC(c3nn(C)c(N)c3C(=O)Nc3ccc(F)c(Cl)c3)CC2C1` (centres undefined), the EC50 was under 100 nM. Compound `CN(C1CC2CC(c3nn(C)c(N)c3C(=O)Nc3ccc(F)c(Cl)c3)CC2C1)S(C)(=O)=O` (centres undefined) has an EC50 of under 100 nM. `CCOC(=O)C=C1CC2CC(c3nn(C)c(N)c3C(=O)Nc3ccc(F)c(Cl)c3)CC2C1` (centres undefined) showed an EC50 of under 100 nM. With `Cn1cc(-c2ccc([C@H]3CC[C@@H](c4nn(C)c(N)c4C(=O)Nc4ccc(F)c(Cl)c4)C3)cc2)cn1` the EC50 was under 100 nM. Compound `CC(N1CC2CC(c3nn(C)c(N)c3C(=O)Nc3ccc(F)c(Cl)c3)CC2C1)C(F)(F)F` (centres undefined) has an EC50 of under 100 nM. With `CC[S+]([O-])C1CC2CC(c3nn(C)c(N)c3C(=O)Nc3ccc(F)c(Cl)c3)CC2C1` (centres undefined) the EC50 was under 100 nM. Work on `Cn1nc([C@H]2CC[C@@H](c3ccccc3)C2)c(C(=O)Nc2ccc(F)c(Cl)c2)c1N` yielded an EC50 of under 100 nM. Compound `Cn1nc(C2CCC(c3ccccc3)C2)c(C(=O)Nc2ccc(F)c(C#N)c2)c1N` (centres undefined) has an EC50 of under 100 nM. For `Cn1nc(C2CC3CN(C(=O)OC(C)(C)C)CC3C2)c(C(=O)Nc2ccc(F)c(Cl)c2)c1N` (centres undefined), the EC50 was under 100 nM. `CN(C)C(=O)CC1CC2CC(c3nn(C)c(N)c3C(=O)Nc3ccc(F)c(Cl)c3)CC2C1` (centres undefined) showed an EC50 of under 100 nM. `Cn1nc(C2CC3CC(N4CCOCC4)CC3C2)c(C(=O)Nc2ccc(F)c(Cl)c2)c1N` (centres undefined) showed an EC50 of under 100 nM. `Cn1nc([C@@H]2CC3CNC(=O)C[C@H]3C2)c(C(=O)Nc2ccc(F)c(Cl)c2)c1N` (some centres undefined) showed an EC50 of under 100 nM. `CC(C)Oc1ccc(C2CCC(c3nn(C)c(N)c3C(=O)Nc3ccc(F)c(Cl)c3)C2)cc1` (centres undefined) gave an EC50 of under 100 nM. Compound `Cn1nc(C2CC3CCCC3C2)c(C(=O)Nc2ccc(F)c(Cl)c2)c1N` (centres undefined) has an EC50 of under 100 nM. For `Cn1nc(C2CCC(c3ccc(OC(F)(F)F)cc3)C2)c(C(=O)Nc2ccc(F)c(Cl)c2)c1N` (centres undefined), the EC50 was “in the range around 5250 nM”. In the case of `Cn1nc(C2CC3CC(CC(N)=O)CC3C2)c(C(=O)Nc2ccc(F)c(Cl)c2)c1N` (centres undefined), the EC50 is reported as under 100 nM. For `Cn1nc(C2CC3CN(C(=O)N4CCCC4)CC3C2)c(C(=O)Nc2ccc(F)c(Cl)c2)c1N` (centres undefined), the EC50 was under 100 nM. With `Cn1nc([C@H]2C[C@@H](c3ccccc3)C2)c(C(=O)Nc2ccc(F)c(Cl)c2)c1N` the EC50 was under 100 nM. `Cn1nc(C2CC3CC(NS(C)(=O)=O)CC3C2)c(C(=O)Nc2ccc(F)c(Cl)c2)c1N` (centres undefined) gave an EC50 of under 100 nM. For `Cn1cc([C@@H]2CC[C@H](c3nn(C)c(N)c3C(=O)Nc3ccc(F)c(Cl)c3)C2)cn1`, the EC50 was under 100 nM.
